Earlier results as cited in publication PMC3018413, “Uptake and Metabolism of the Novel Peptide Angiotensin-(1-12) by Neonatal Cardiac Myocytes” (PLoS ONE, 2011).

Assays:
[1] = test system: Ang II formation from Ang-(1–12); details: ref Prosser et al. [29] as printed
Description: In the controlled environment of a cell culture system, neonatal cardiac myocytes of SHR and WKY metabolized ^125I-Ang-(1–12) into Ang I, leading to sequential production of Ang II, Ang-(1–7), and other smaller angiotensin fragments. […] This new observation is in ...

[2] = test system: human renal tubular epithelial cells

Row | Molecule | inhibition of Ang II formation from Ang-(1–12) [1] | bound angiotensinogen that could be displaced [2] [%]
1 | CC(C)C[C@H](NC(=O)[C@@H](NC(=O)N[C@@H](Cc1ccccc1)C(=O)O)[C@@H]1CCN=C(N)N1)C(=O)N[C@H](C=O)Cc1ccccc1 [chymostatin] | completely inhibited | 
2 | angiotensinogen: angiotensinogen protein bound to human renal tubular epithelial cells, cited study (protein, UniProt P01019 25-476, looked up) Angiotensinogen: DRVYIHPFHLVIHNESTCEQLAKANAGKPKDPTFIPAPIQAKTSPVDEKALQDQLVLVAAKLDTEDKLRAAMVGMLANFLGFRIYGMHSELWGVVHGATVLSPTAVFGTLASLYLGALDHTADRLQAILGVPWKDKNCTSRLDAHKVLSALQAVQGLLVAQGRADSQAQLLLSTVVGVFTAPGLHLKQPFVQGLALYTPVVLPRSLDFTELDVAAEKIDRFMQAVTGWKTGCSLMGASVDSTLAFNTYVHFQGKMKGFSLLAEPQEFWVDNSTSVSVPMLSGMGTFQHWSDIQDNFSVTQVPFTESACLLLIQPHYASDLDKVEGLTFQQNSLNWMKKLSPRTIHLTMPQLVLQGSYDLQDLLAQAELPAILHTELNLQKLSNDRIRVGEVLNSIFFELEADEREPTESTQQLNKPEVLEVTLNRPFLFAVYDQSATALHFLGRVANPLSTA |  | ≤ 50
